Earlier results as cited in patent US4041155A, “Long acting somatostatin composition” (American Home Products Corporation, priority 1974, dated 1977).

Columns and labels:
GH secretion = conditions: patients with acromegaly; cited from earlier work
[1] = system: release of glucagon, insulin, and GH; conditions: oral glucose tolerance and intravenous arginine tests; cited from earlier work
circulating levels of GH = conditions: subcutaneous route, cited from earlier work

Substance | circulating levels of glucose (GH secretion) | circulating levels of insulin (GH secretion) | circulating levels of prolactin (GH secretion) | duration of biologic action (GH secretion) | free fatty acids (GH secretion) | inhibitory action on GH secretion (GH secretion) | levels of follicle-stimulating hormone (GH secretion) | levels of luteinizing hormone (GH secretion) | levels of thyrotropin (GH secretion) | release of GH [1] | release of glucagon [1] | release of insulin [1] | circulating levels of GH (circulating levels of GH; "gentled" rats) | elevation of plasma GH concentration induced by sodium pentobarbital (circulating levels of GH; rats) | duration of activity, half-life (circulating levels of GH; rats, estimated)
Somatostatin: cyclic disulfide tetradecapeptide; Somatotropin-release inhibiting factor secreted by the hypothalamus | fall | fall | fall | brief | increase | nearly complete | No effects | No effects | No effects | impairs the release | impairs the release | impairs the release |  |  | 
linear somatostatin: reduced tetradecapeptide; differs from cyclic form by lacking the bridging bond between the two cysteinyl sulfhydryls |  |  |  |  |  |  |  |  |  |  |  |  | lowers the circulating levels of GH | prevents the elevation of plasma GH concentration | less than ten minutes
